# Experimental data published in ChEMBL document CHEMBL1126971, “Structure-activity relationships from molecular similarity matrices” (J Med Chem, 1993).
# Experiments:
# [1] = molecular target: T1, Corticosteroid-binding globulin (Homo sapiens) (UniProt P08185)
# T1 sequence (whole entry): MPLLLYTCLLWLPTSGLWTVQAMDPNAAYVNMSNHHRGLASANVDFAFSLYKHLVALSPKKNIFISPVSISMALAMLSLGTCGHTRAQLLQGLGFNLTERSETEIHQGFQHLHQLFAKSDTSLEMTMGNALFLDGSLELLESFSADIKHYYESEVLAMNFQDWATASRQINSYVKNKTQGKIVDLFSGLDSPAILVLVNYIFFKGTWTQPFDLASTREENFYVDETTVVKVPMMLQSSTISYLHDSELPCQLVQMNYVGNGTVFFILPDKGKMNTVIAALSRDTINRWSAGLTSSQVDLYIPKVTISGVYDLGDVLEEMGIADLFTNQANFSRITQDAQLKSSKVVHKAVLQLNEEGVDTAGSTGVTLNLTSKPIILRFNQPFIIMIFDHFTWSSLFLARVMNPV
# [2] = molecular target: T2, Sex hormone-binding globulin (Homo sapiens) (UniProt P04278)
# T2 sequence (whole entry): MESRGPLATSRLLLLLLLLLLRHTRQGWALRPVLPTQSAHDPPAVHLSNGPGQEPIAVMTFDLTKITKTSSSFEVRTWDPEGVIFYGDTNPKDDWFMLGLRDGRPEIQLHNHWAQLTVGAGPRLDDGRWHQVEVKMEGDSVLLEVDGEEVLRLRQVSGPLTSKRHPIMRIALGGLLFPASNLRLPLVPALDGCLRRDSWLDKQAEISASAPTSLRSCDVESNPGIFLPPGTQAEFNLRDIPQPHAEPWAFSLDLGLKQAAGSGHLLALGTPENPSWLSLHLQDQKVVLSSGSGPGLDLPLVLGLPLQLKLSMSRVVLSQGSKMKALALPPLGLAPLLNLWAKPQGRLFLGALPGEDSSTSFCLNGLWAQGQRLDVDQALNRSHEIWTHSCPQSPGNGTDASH
# Description: Binding affinity against testosterone-binding globulin (TeBG)
# [3] = molecular target: T1, Corticosteroid-binding globulin (Homo sapiens); remark: listed apart in the source
# [4] = molecular target: T1, Corticosteroid-binding globulin (Homo sapiens); assay: Binding affinity against corticosteroid-binding globulin (CBG)
Structure (SMILES),Log 1/K [1],Log 1/K [2],Log 1/K [3],Log 1/K [4]
CC(=O)[C@H]1CC[C@H]2[C@@H]3CCC4=CC(=O)CC[C@]4(C)[C@H]3C(=O)C[C@]12C,6.78,–,–,–
CC(=O)[C@@]1(O)CC[C@H]2[C@@H]3CCC4=CC(=O)CC[C@]4(C)[C@H]3CC[C@@]21C,7.74,7,–,–
C[C@]12CC[C@H](O)CC1=CC[C@@H]1[C@@H]2CC[C@]2(C)C(=O)CC[C@@H]12,5,7.82,–,–
C[C@]12CCC(=O)C=C1CC[C@@H]1[C@@H]2CC[C@]2(C)C(=O)CC[C@@H]12,5.76,7.46,–,–
C[C@]12CC[C@H]3[C@@H](CCC4=CC(=O)CC[C@@H]43)[C@@H]1CC[C@@H]2O,6.14,–,–,–
C[C@]12C=CC(=O)C=C1CC[C@@H]1[C@@H]2[C@@H](O)C[C@@]2(C)[C@H]1CC[C@]2(O)C(=O)CO,7.51,–,–,–
C[C@]12CCC(=O)C=C1CC[C@@H]1[C@@H]2C(=O)C[C@@]2(C)[C@H]1CC[C@]2(O)C(=O)CO,6.89,6.43,–,–
C[C@]12CCC(=O)C=C1CC[C@@H]1[C@@H]2CC[C@@]2(C)[C@H]1CC[C@]2(O)C(=O)CO,7.88,7.2,–,–
CC(=O)OCC(=O)[C@@]1(O)CCC2C3CCC4=CC(=O)CC[C@]4(C)C3C(O)C[C@@]21C (some centres not stated),7.55,–,–,–
CC(=O)[C@@]1(C)CCC2C3CCC4=CC(=O)CC[C@]4(C)C3CC[C@@]21C (some centres not stated),7.12,–,–,–
C[C@]12C[C@@H](O)[C@H]3[C@@H](CCC4=CC(=O)CC[C@@]43C)[C@@H]1CC[C@@H]2C(=O)CO,7.2,–,–,–
C[C@]12C[C@H](O)[C@H]3[C@@H](CCC4=CC(=O)CC[C@@]43C)[C@@H]1CC[C@@H]2C(=O)CO,7.88,6.34,–,–
C[C@]12CC[C@H](O)C[C@@H]1CC[C@@H]1[C@@H]2CC[C@]2(C)[C@@H](O)CC[C@@H]12,5,9.11,–,–
CC(=O)[C@@]1(O)CC[C@H]2[C@@H]3CC=C4C[C@@H](O)CC[C@]4(C)[C@H]3CC[C@@]21C,5,6.36,–,–
CC(=O)[C@@]1(O)[C@H](O)C[C@H]2[C@@H]3CCC4=CC(=O)CC[C@]4(C)[C@H]3CC[C@@]21C,6.25,–,–,–
CC(=O)[C@H]1CC[C@H]2[C@@H]3CCC4=CC(=O)CC[C@@H]4[C@H]3CC[C@]12C,6.82,–,–,–
CC(=O)[C@H]1CC[C@H]2[C@@H]3CCC4=CC(=O)CC[C@]4(C)[C@H]3CC[C@]12C,–,6.94,-7.38,–
C[C@]12CCC(=O)C=C1CC[C@@H]1[C@@H]2[C@@H](O)C[C@@]2(C)[C@H]1CC[C@]2(O)C(=O)CO,7.88,6.2,–,–
C[C@]12CCC(=O)C=C1CCC1C3CC[C@H](C(=O)CO)[C@@]34C[C@H](OC4O)C12 (some centres not stated),–,5.32,–,6.28
C[C@@H]1C[C@@]2(C)C(=CC1=O)CCC1C3CCC(C(=O)CO)[C@@]3(C)CC(O)[C@@]12F (some centres not stated),5.8,–,–,–
C[C@]12CC[C@H]3[C@@H](CCC4=CC(=O)CC[C@@]43C)[C@@H]1CC[C@@H]2C(=O)CO,7.65,7.38,–,–
CC(=O)[C@H]1CC[C@H]2[C@@H]3CC=C4C[C@@H](O)CC[C@]4(C)[C@H]3CC[C@]12C,5.22,7.15,–,–
C[C@]12CC[C@@H]3c4ccc(O)cc4CC[C@H]3[C@@H]1C[C@@H](O)[C@H]2O,5,6.63,–,–
